Measurements as given in patent US5880314A, “Hydrochalcone derivatives, cosmetic compositions containing said derivatives and methods of producing the same” (priority 1995, dated 1999).

Columns and labels:
B16 melanoma cells = assay: Melanoma cell depigmenting test (melanin production); type: cell-based; conditions: 5 days, control as 100%; for activity at 0.01 µg/mL / activity at 0.03 µg/mL / activity at 0.3 µg/mL: Mus musculus, B16, 120 h
Experimental: (Melanoma Cell Depigmenting Test)
Effect of compounds in suppressing melanin pigment synthesis was tested by measuring change in color of B16 melanoma cells when the cells were cultured at a concentration which had no adverse effect on growth of the cells. B16 Melanoma cells (1×10^5) were inoculated on 60 mm petri dishes. After 24 hours, 1,3-bis(2,4-dihydroxyphenyl)propane synthesized in Production Example 3, 1,3-bis(2,4-diacetoxyphenyl)propane synthesized in Production Example 4 and 1,3-bis(2,4-didodecanoyloxyphenyl)propane were added to the each medium, and incubation was curried out for 5 days. After incubation, the cells recovered by trypsin treatment were suspended in 0.3 ml of phosphate buffer and subjected to ultrasonic treatment for cell disruption, 0.3 ml of 4N NaOH was added to the treated suspension and the resultant suspension was incubated at 60° C. for 2 hours. Absorbance was measured at 400 nm and the amount of released melanin was calculated by setting the control as 100%. In Comparative Examples, similar tests were carried out using dihydrophloretin, a hydrochalcone compound, in place of the compounds of the present invention.

skin = conditions: combined in cosmetics; cited from earlier work
synthesis of melanin = conditions: reported in the literature; cited from earlier work

Compound | activity at 0.01 µg/mL (B16 melanoma cells; 0.01 μg/ml) [%] | activity at 0.03 µg/mL (B16 melanoma cells; 0.03 μg/ml) [%] | activity at 0.3 µg/mL (B16 melanoma cells; 0.30 μg/ml) [%] | effect in suppressing the synthesis of melanin (synthesis of melanin) | further results
CC(=O)Oc1ccc(CCCc2ccc(OC(C)=O)cc2OC(C)=O)c(OC(C)=O)c1 [1,3-bis(2,4-diacetoxyphenyl)propane] | 44 | 18 | 11 | – | –
CCCCCCCCCCCC(=O)Oc1ccc(CCCc2ccc(OC(=O)CCCCCCCCCCC)cc2OC(=O)CCCCCCCCCCC)c(OC(=O)CCCCCCCCCCC)c1 [1,3-bis(2,4-didodecanoyloxyphenyl)propane] | 28 | 9 | 7 | – | –
Oc1ccc(CCCc2ccc(O)cc2O)c(O)c1 [1,3-bis(2,4-dihydroxyphenyl)propane] | 31 | 10 | 7 | – | –
Oc1ccc(OCc2ccccc2)cc1 [hydroquinone monobenzyl ether] | – | – | – | – | lightening of skin darkened with deposited pigment (skin): effectively lightened; side effects (skin): side effects such as skin allergies and irritation
O=C(CCc1ccc(O)cc1)c1c(O)cc(O)cc1O[C@@H]1O[C@H](CO)[C@@H](O)[C@H](O)[C@H]1O [phlorizin] | – | – | – | have an effect in suppressing the synthesis of melanin | –
dihydrophloretin | – | – | – | have an effect in suppressing the synthesis of melanin | Melanin production (%) (B16 melanoma cells; 0.01 μg/ml): 92%; Melanin production (%) (B16 melanoma cells; 0.03 μg/ml): 80%; Melanin production (%) (B16 melanoma cells; 0.30 μg/ml): 65%
phlorezin | – | – | – | have an effect in suppressing the synthesis of melanin | –
phlorine | – | – | – | have an effect in suppressing the synthesis of melanin | –
